In patent US10385069B2, “Imidazo[2,1-B]thiazole and 5,6-dihydroimidazo[2,1-B]thiazole derivatives useful as S100-inhibitors” (Active Biotech AB, priority 2015, dated 2019):

biological target: T1, interaction between biotinylated human S100A9 and human RAGE-Fc (Homo sapiens, UniProt P06702); test: AlphaScreen inhibition assay, biot-hS100A9:hRAGE-Fc; assay type: binding; conditions: biot-hS100A9 pre-incubated with compound 1 h, assay buffer with CaCl2 and ZnCl2
T1 construct: made in house; host or cells: E. coli
T1 sequence (P06702 1-114): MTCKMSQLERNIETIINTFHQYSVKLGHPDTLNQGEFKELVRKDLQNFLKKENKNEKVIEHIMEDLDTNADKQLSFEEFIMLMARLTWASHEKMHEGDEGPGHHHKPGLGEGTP
How it was run: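 Biotinylated human S100A9, preincubated with compound, binds human RAGE-Fc on protein A Acceptor beads in HBS-P with CaCl2 and ZnCl2; streptavidin Donor beads added, AlphaScreen signal read. Protein levels set by cross-titration; beads 20 μg/mL final. Percent inhibition versus DMSO control; IC50 from varied compound concentrations.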

SMILES	IC50 [nM]
C[C@@]1(C(=O)O)CN2C(=N1)Sc1c2ccc(F)c1Cl (single isomer, unassigned) [Example 279b]	390
Cc1ccc2c(c1)sc1nc(C(=O)O)cn12 [Example 11, 10-Methyl-7-thia-2,5-diazatricyclo[6.4.0.0^2,6]dodeca-1(8),3,5,9,11-pentaene-4-carboxylic acid]	5020
C=C(C)c1c(C(=O)O)nc2sc3c(n12)CC(C)(C)CC3(C)C [Example 287, 9,9,11,11-Tetramethyl-3-(prop-1-en-2-yl)-7-thia-2,5-diazatricyclo[6.4.0.0^2,6]dodeca-1(8),3,5-triene-4-carboxylic acid]	760
O=C(O)C1CN2C(=N1)Sc1c2cc(OCCN2CCOCC2)c(Cl)c1Cl (stereo not drawn) [Example 285, 9,10-Dichloro-11-[2-(morpholin-4-yl)ethoxy]-7-thia-2,5-diazatricyclo[6.4.0.0^2,6]dodeca-1(8),5,9,11-tetraene-4-carboxylic acid]	1270
CC(C)(C)C1CCc2c(sc3nc(C(=O)O)c(NS(C)(=O)=O)n23)C1 (stereo not drawn) [Example 196, 10-tert-Butyl-3-methanesulfonamido-7-thia-2,5-diazatricyclo[6.4.0.0^2,6]dodeca-1(8),3,5-triene-4-carboxylic acid]	490
O=C(O)c1cn2c3c(sc2n1)-c1ccccc1CC3 [Example 41, 16-Thia-11,14-diazatetracyclo[8.6.0.0^2,7.0^11,15]hexadeca-1 (10),2(7),3,5,12,14-hexaene-13-carboxylic acid]	360
O=C(O)c1cn2c(n1)sc1c(Cl)c(C3CC3)ccc12 [Example 252, 9-Chloro-10-cyclopropyl-7-thia-2,5-diazatricyclo[6.4.0.0^2,6]dodeca-1(8),3,5,9,11-pentaene-4-carboxylic acid]	290
CC1(C)Cc2c(sc3nc(C(=O)NS(C)(=O)=O)cn23)C(C)(C)C1 [Example 53, N-Methanesulfonyl-9,9,11,11-tetramethyl-7-thia-2,5-diazatricyclo[6.4.0.0^2,6]dodeca-1(8),3,5-triene-4-carboxamide]	480
O=C(O)c1cn2c(n1)sc1cc(C(F)(F)F)ccc12 [Example 14, 10-(Trifluoromethyl)-7-thia-2,5-diazatricyclo[6.4.0.0^2,6]dodeca-1(8),3,5,9,11-pentaene-4-carboxylic acid]	2140
O=C(O)c1cn2c(n1)sc1c(Cl)c(OC(F)(F)F)ccc12 [Example 214, 9-Chloro-10-(trifluoromethoxy)-7-thia-2,5-diazatricyclo[6.4.0.0^2,6]dodeca-1(8),3,5,9,11-pentaene-4-carboxylic acid]	640
O=C(O)c1cn2c(n1)sc1c(Cl)c(F)ccc12 [Example 2, 9-Chloro-10-fluoro-7-thia-2,5-diazatricyclo[6.4.0.0^2,6]dodeca-1(8),3,5,9,11-pentaene-4-carboxylic acid]	250
CC(C)(C)c1ccc2c(c1)sc1nc(C(=O)O)cn12 [Example 206, 10-tert-Butyl-7-thia-2,5-diazatricyclo[6.4.0.0^2,6]dodeca-1(8),3,5,9,11-pentaene-4-carboxylic acid]	960
O=C(O)c1cn2c(n1)sc1ccc(Cl)cc12 [Example 12, 11-Chloro-7-thia-2,5-diazatricyclo[6.4.0.0^2,6]dodeca-1(8),3,5,9,11-pentaene-4-carboxylic acid]	5610
O=C(O)C1(Cc2ccccc2)CN2C(=N1)Sc1c2ccc(F)c1Cl (stereo not drawn) [Example 262, 4-Benzyl-9-chloro-10-fluoro-7-thia-2,5-diazatricyclo[6.4.0.0^2,6]dodeca-1(8),5,9,11-tetraene-4-carboxylic acid]	770
C#Cc1c(C(=O)O)nc2sc3c(n12)CC(C)(C)CC3(C)C [Example 229, 3-Ethynyl-9,9,11,11-tetramethyl-7-thia-2,5-diazatricyclo[6.4.0.0^2,6]dodeca-1(8),3,5-triene-4-carboxylic acid]	740
CC1CCCc2c1sc1nc(C(=O)NS(C)(=O)=O)cn21 (single isomer, unassigned) [Example 48, N-Methanesulfonyl-9-methyl-7-thia-2,5-diazatricyclo[6.4.0.0^2,6]dodeca-1(8),3,5-triene-4-carboxamide]	1200
O=C(O)c1cn2c(n1)sc1cc(Br)ccc12 [Example 13, 10-Bromo-7-thia-2,5-diazatricyclo[6.4.0.0^2,6]dodeca-1(8),3,5,9,11-pentaene-4-carboxylic acid]	1300
O=C(O)c1cn2c(n1)sc1cc(OC(F)(F)F)ccc12 [Example 4, 10-(Trifluoromethoxy)-7-thia-2,5-diazatricyclo[6.4.0.0^2,6]dodeca-1(8),3,5,9,11-pentaene-4-carboxylic acid]	1160

SMILES	IC50 [nM]
O=C(O)C1CN2C(=N1)Sc1c2ccc(Cl)c1Cl (stereo not drawn) [Example 185, 9,10-Dichloro-7-thia-2,5-diazatricyclo[6.4.0.0^2,6]dodeca-1(8),5,9,11-tetraene-4-carboxylic acid]	450
O=C(O)c1nc2sc3c(Cl)c(F)ccc3n2c1N1CCOCC1 [Example 238, 9-Chloro-10-fluoro-3-(morpholin-4-yl)-7-thia-2,5-diazatricyclo[6.4.0.0^2,6]dodeca-1(8),3,5,9,11-pentaene-4-carboxylic acid]	200
CC1(C)Cc2c(sc3nc(C(=O)O)c(I)n23)C(C)(C)C1 [Example 199, 3-Iodo-9,9,11,11-tetramethyl-7-thia-2,5-diazatricyclo[6.4.0.0^2,6]dodeca-1(8),3,5-triene-4-carboxylic acid]	530
CS(=O)(=O)N1CC(c2c(C(=O)O)nc3sc4c(Cl)c(F)ccc4n23)C1 [Example 293, 9-Chloro-10-fluoro-3-(1-methanesulfonylazetidin-3-yl)-7-thia-2,5-diazatricyclo[6.4.0.0^2,6]dodeca-1(8),3,5,9,11-pentaene-4-carboxylic acid]	500
CC(C)(C)C1CCc2c(sc3nc(C(=O)O)c(CO)n23)C1 (stereo not drawn) [Example 256, 10-tert-Butyl-3-(hydroxymethyl)-7-thia-2,5-diazatricyclo[6.4.0.0^2,6]dodeca-1(8),3,5-triene-4-carboxylic acid]	500
O=C(O)c1cn2c(n1)sc1cc(Cl)c(OC(F)(F)F)cc12 [Example 230, 10-Chloro-11-(trifluoromethoxy)-7-thia-2,5-diazatricyclo[6.4.0.0^2,6]dodeca-1(8),3,5,9,11-pentaene-4-carboxylic acid]	980
O=C(O)c1cn2c(n1)sc1c(Cl)c(Cl)c(OCCN3CCOCC3)cc12 [Example 261, 9,10-Dichloro-11-[2-(morpholin-4-yl)ethoxy]-7-thia-2,5-diazatricyclo[6.4.0.0^2,6]dodeca-1(8),3,5,9,11-pentaene-4-carboxylic acid]	550
CS(=O)(=O)Nc1c(C(=O)O)nc2sc3c(Cl)c(F)ccc3n12 [Example 232, 9-Chloro-10-fluoro-3-methanesulfonamido-7-thia-2,5-diazatricyclo[6.4.0.0^2,6]dodeca-1(8),3,5,9,11-pentaene-4-carboxylic acid]	200
CC1CCCc2c1sc1nc(C(=O)O)cn21 (stereo not drawn) [Example 44, 9-Methyl-7-thia-2,5-diazatricyclo[6.4.0.0^2,6]dodeca-1(8),3,5-triene-4-carboxylic acid]	840
O=C(O)c1cn2c(n1)sc1c(Cl)c(N3CC(F)(F)C3)ccc12 [Example 266, 9-Chloro-10-(3,3-difluoroazetidin-1-yl)-7-thia-2,5-diazatricyclo[6.4.0.0^2,6]dodeca-1(8),3,5,9,11-pentaene-4-carboxylic acid]	950
CC1(C)Cc2c(sc3nc(C(=O)NS(=O)(=O)CCCN4CCOCC4)cn23)C(C)(C)C1 [Example 55, 9,9,11,11-Tetramethyl-N-[3-(morpholin-4-yl)propanesulfonyl]-7-thia-2,5-diazatricyclo[6.4.0.0^2,6]dodeca-1(8),3,5-triene-4-carboxamide]	550
CN1CCN(c2c(C(=O)O)nc3sc4c(n23)CC(C)(C)CC4(C)C)CC1 [Example 288, 9,9,11,11-Tetramethyl-3-(4-methylpiperazin-1-yl)-7-thia-2,5-diazatricyclo[6.4.0.0^2,6]dodeca-1(8),3,5-triene-4-carboxylic acid]	1060
CC(C)(C)C1CCc2c(sc3nc(C(=O)O)c(CN4CCOCC4)n23)C1 (stereo not drawn) [Example 242, 10-tert-Butyl-3-(morpholin-4-ylmethyl)-7-thia-2,5-diazatricyclo[6.4.0.0^2,6]dodeca-1(8),3,5-triene-4-carboxylic acid]	1390
O=C(O)[C@H]1CN2C(=N1)Sc1c2ccc(F)c1Cl (single isomer, unassigned) [Example 237]	680
CC(C)(C)Nc1c(C(=O)O)nc2sc3cc(OC(F)(F)F)ccc3n12 [Example 18, 3-(tert-Butylamino)-10-(trifluoromethoxy)-7-thia-2,5-diazatricyclo[6.4.0.0^2,6]dodeca-1(8),3,5,9,11-pentaene-4-carboxylic acid]	1030
Cc1c(C(=O)O)nc2sc3c(n12)CCC(C(C)(C)C)C3 (stereo not drawn) [Example 195, 10-tert-Butyl-3-methyl-7-thia-2,5-diazatricyclo[6.4.0.0^2,6]dodeca-1(8),3,5-triene-4-carboxylic acid]	240
O=C(NS(=O)(=O)C(F)(F)F)c1cn2c(n1)sc1c(Cl)c(Cl)ccc12 [Example 26, 9,10-Dichloro-N-trifluoromethanesulfonyl-7-thia-2,5-diazatricyclo[6.4.0.0^2,6]dodeca-1(8),3,5,9,11-pentaene-4-carboxamide]	420
CC1(C(=O)O)CN2C(=N1)Sc1c2ccc(F)c1Cl (stereo not drawn) [Example 250, 9-Chloro-10-fluoro-4-methyl-7-thia-2,5-diazatricyclo[6.4.0.0^2,6]dodeca-1(8),5,9,11-tetraene-4-carboxylic acid]	670
